Target: human LPA1 receptor (Homo sapiens (Human), UniProt Q92633)
Test: Beta-arrestin recruitment assay to determine IC50 values for human LPAR1
Format: cell-based
Details: antagonist mode, Tango EDG2-bla U2OS cells, LPA 18:1 500 nM final
Procedure, shortened: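 Antagonist IC50 = concentration giving 50% inhibition of maximal LPA response. Read-out is beta-lactamase reporter activity after arrestin-protease recruitment in U2OS cells bearing LPA1-TEV-Gal4-VP16 construct; cells pre-incubated 20 h, 37 °C, 5% CO2.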

Chain of human LPA1 receptor (Q92633 whole entry): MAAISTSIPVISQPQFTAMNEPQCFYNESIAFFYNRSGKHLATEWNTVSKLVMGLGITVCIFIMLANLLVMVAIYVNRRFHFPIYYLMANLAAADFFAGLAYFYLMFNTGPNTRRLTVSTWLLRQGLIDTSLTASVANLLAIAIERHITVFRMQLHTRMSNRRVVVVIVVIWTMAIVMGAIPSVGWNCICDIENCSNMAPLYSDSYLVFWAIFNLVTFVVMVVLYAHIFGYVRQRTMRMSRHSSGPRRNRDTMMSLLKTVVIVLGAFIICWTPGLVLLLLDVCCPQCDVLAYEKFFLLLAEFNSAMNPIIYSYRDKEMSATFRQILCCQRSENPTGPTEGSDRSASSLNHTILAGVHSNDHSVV

Row | Structure (SMILES) | IC50
1 | Cc1ccc(NC(=O)C2(c3ccccc3C(C)C)CN(Cc3cnn(C)c3)C2)c(OC(F)F)n1 [Ex 11-23, N-(2-(difluoromethoxy)-6-methylpyridin-3-yl)-3-(2-isopropylphenyl)-1-((1-methyl-1H-pyrazol-4-yl)methyl)azetidine-3-carboxamide] | 0.775 µM
2 | COC(=O)CCCCS(=O)(=O)N1CC(C(=O)Nc2ccc(C)nc2OC(F)F)(c2ccccc2C(C)C)C1 [Ex 13-18, methyl 5-((3-((2-(difluoromethoxy)-6-methylpyridin-3-yl)carbamoyl)-3-(2-isopropylphenyl)azetidin-1-yl)sulfonyl)pentanoate] | 0.072 µM
3 | Cc1ccc(NC(=O)C2(c3ccccc3C(C)C)CN(S(=O)(=O)CCC(=O)OCc3ccccc3)C2)c(OC(F)F)n1 [Ex 13-4, Benzyl 3-((3-((2-(difluoromethoxy)-6-methylpyridin-3-yl)carbamoyl)-3-(2-isopropylphenyl)azetidin-1-yl)sulfonyl)propanoate] | 0.01 µM
4 | CC(=O)N1CC(C(=O)Nc2ccc(C)nc2OC(F)F)(c2ccccc2C(C)C)C1 [Ex 12-2, 1-acetyl-N-(2-(difluoromethoxy)-6-methylpyridin-3-yl)-3-(2-isopropylphenyl)azetidine-3-carboxamide] | 0.01 µM
5 | Cc1ccc(NC(=O)C2(c3ccccc3C(C)C)CN(C(=O)C3CS(=O)(=O)C3)C2)c(OC(F)F)n1 [Ex 12-129, N-(2-(difluoromethoxy)-6-methylpyridin-3-yl)-1-(1,1-dioxidothietane-3-carbonyl)-3-(2-isopropylphenyl)azetidine-3-carboxamide] | 0.058 µM
6 | CNS(=O)(=O)CC(=O)N1CC(C(=O)Nc2ccc(C)nc2OC(F)F)(c2ccccc2C(C)C)C1 [Ex 12-6, N-(2-(difluoromethoxy)-6-methylpyridin-3-yl)-3-(2-isopropylphenyl)-1-(2-(N-methylsulfamoyl)acetyl)azetidine-3-carboxamide] | 0.013 µM
7 | Cc1ccc(NC(=O)C2(c3ccccc3C(C)C)CCN(C(=O)Cc3cc(O)n[nH]3)CC2)c(OC(F)F)n1 [Ex 12-25, N-(2-(difluoromethoxy)-6-methylpyridin-3-yl)-1-(2-(3-hydroxy-1H-pyrazol-5-yl)acetyl)-4-(2-isopropylphenyl)piperidine-4-carboxamide] | 0.015 µM
8 | Cc1ccc(NC(=O)C2(c3ccccc3C(C)C)CN(S(=O)(=O)CC(C)(C)C(=O)O)C2)c(OC(F)F)n1 [Ex 13-12, 3-((3-((2-(difluoromethoxy)-6-methylpyridin-3-yl)carbamoyl)-3-(2-isopropylphenyl)azetidin-1-yl)sulfonyl)-2,2-dimethylpropanoic acid] | 0.004 µM
9 | Cc1ccc(NC(=O)C2(c3ccccc3C(C)C)CN(Cc3ccnc(C(=O)O)c3)C2)c(OC(F)F)n1 [Ex 11-51, 4-((3-((2-(difluoromethoxy)-6-methylpyridin-3-yl)carbamoyl)-3-(2-isopropylphenyl)azetidin-1-yl)methyl)picolinic acid] | 0.041 µM

The remaining lines, values ahead:

Row | IC50 | Structure (SMILES)
10 | 0.011 µM | Cc1ccc(NC(=O)C2(c3ccccc3C(C)C)CN(S(=O)(=O)NCCO)C2)c(OC(F)F)n1 [Ex 15-3, N-(2-(difluoromethoxy)-6-methylpyridin-3-yl)-1-(N-(2-hydroxyethyl)sulfamoyl)-3-(2-isopropylphenyl)azetidine-3-carboxamide]
11 | 0.071 µM | CCOC(=O)c1coc(N2CC(C(=O)Nc3cccnc3OC(F)F)(c3ccccc3C(C)C)C2)n1 [Ex 18-29, ethyl 2-(3-((2-(difluoromethoxy)pyridin-3-yl)carbamoyl)-3-(2-isopropylphenyl)azetidin-1-yl)oxazole-4-carboxylate]
12 | 0.03 µM | COC(=O)c1cnc(N2CC(C(=O)Nc3ccc(C)nc3OC(F)F)(c3ccccc3C(C)C)C2)n1C [Ex 18-35, methyl 2-(3-((2-(difluoromethoxy)-6-methylpyridin-3-yl)carbamoyl)-3-(2-isopropylphenyl)azetidin-1-yl)-1-methyl-1H-imidazole-5-carboxylate]

— patent US12344597B2, “Alkoxy-substituted pyridinyl derivatives as LPA1 receptor antagonists and their use in the treatment of fibrosis” (IDORSIA PHARMACEUTICALS LTD, priority 2018, dated 2025)
